Measurements from PubChem BioAssay AID330 (DTP/NCI, 2004).
Where “and” joins values, the source holds several entries; their conditions need not be identical. Equal values may be shown once. Toxic doses and inconclusive results are not listed.

System: P388 leukemia ip, CD2F1 mice, survival T/C
Assay: NCI In Vivo Anticancer Drug Screen. Data for tumor model P388 Leukemia (intraperitoneal) in CD2F1 (CDF1) mice
Settings: endpoint: median survival time, higher = longer survival
Method in brief: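 Mice carrying the transplanted tumor received test compound or vehicle. Survival was recorded in each group, and the value is the treated-group measurement divided by that of the vehicle-treated control group.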

[1] = dose: 50.0 mg/kg/injection, schedule: Q01DX009 (ip), vehicle: saline with Tween-80
[2] = dose: 100.0 mg/kg/injection, schedule: Q01DX009 (ip), vehicle: saline with Tween-80
[3] = dose: 200.0 mg/kg/injection, schedule: Q01DX009 (ip), vehicle: saline with Tween-80

Q: Which results are given for CCN(CC)CCNC1CC2CCC1(C)C2(C)C (stereo not drawn)?
A: T/C (dose: 25.0 mg/kg/injection, schedule: Q01DX005 (ip), vehicle: saline with Tween-80): 98 % of control; T/C (dose: 50.0 mg/kg/injection, schedule: Q01DX005 (ip), vehicle: saline with Tween-80): 91 % of control; T/C (dose: 100.0 mg/kg/injection, schedule: Q01DX005 (ip), vehicle: saline with Tween-80): 89 % of control

Q: What does the source list for Cc1cc(N(CCOS(C)(=O)=O)CCOS(C)(=O)=O)ccc1C=Nc1ccc(-c2nc(Cc3ccccc3)sc2C)cc1?
A: T/C (dose: 12.5 mg/kg/injection, schedule: Q01DX009 (ip), vehicle: Klucel (hydroxypropylcellulose) (HPC)): 101 % of control; T/C (dose: 12.5 mg/kg/injection, schedule: Q01DX009 (oral), vehicle: Klucel (hydroxypropylcellulose) (HPC)): 106 % of control and 107 % of control; T/C (dose: 25.0 mg/kg/injection, schedule: Q01DX009 (oral), vehicle: Klucel (hydroxypropylcellulose) (HPC)): 100 % of control and 107 % of control; T/C (dose: 50.0 mg/kg/injection, schedule: Q01DX009 (oral), vehicle: Klucel (hydroxypropylcellulose) (HPC)): 106 % of control and 117 % of control; T/C (dose: 100.0 mg/kg/injection, schedule: Q01DX009 (oral), vehicle: Klucel (hydroxypropylcellulose) (HPC)): 108 % of control; T/C (dose: 200.0 mg/kg/injection, schedule: Q01DX009 (oral), vehicle: Klucel (hydroxypropylcellulose) (HPC)): 119 % of control and 124 % of control; T/C (dose: 400.0 mg/kg/injection, schedule: Q01DX009 (oral), vehicle: Klucel (hydroxypropylcellulose) (HPC)): 106 % of control

Q: C=CC[S+]1CCSC1C(=O)OCC (stereo not drawn) was tested. Which T/C (dose: 100.0 mg/kg/injection, schedule: Q01DX001 (ip), vehicle: saline) did it give?
A: 95 % of control

Q: What about the T/C (dose: 200.0 mg/kg/injection, schedule: Q01DX001 (ip), vehicle: saline) of the same compound?
A: 112 % of control

Q: What about the T/C (dose: 400.0 mg/kg/injection, schedule: Q01DX001 (ip), vehicle: saline) of the same compound?
A: 91 % of control

Q: Which T/C (dose: 60.0 mg/kg/injection, schedule: Q01DX005 (ip), vehicle: saline with Tween-80) does the source give for N#CCc1ccccc1C(C#N)C(=O)CCC(=O)C(C#N)c1ccccc1CC#N (stereo not drawn) here?
A: 104 % of control

Q: And the T/C (dose: 120.0 mg/kg/injection, schedule: Q01DX005 (ip), vehicle: saline with Tween-80)?
A: 103 % of control

Q: What about the T/C (dose: 240.0 mg/kg/injection, schedule: Q01DX005 (ip), vehicle: saline with Tween-80) of the same compound?
A: 102 % of control

Q: For O=C(N/N=C/c1cc(Br)cc(Br)c1[O-])c1ccccc1.O=C(N/N=C/c1cc(Br)cc(Br)c1[O-])c1ccccc1.[Mn+2], which T/C (dose: 100.0 mg/kg/injection, schedule: Q01DX001 (ip), vehicle: saline with Tween-80) is on record?
A: 95 % of control

Q: And the T/C (dose: 200.0 mg/kg/injection, schedule: Q01DX001 (ip), vehicle: saline with Tween-80)?
A: 101 % of control

Q: What about the T/C (dose: 400.0 mg/kg/injection, schedule: Q01DX001 (ip), vehicle: saline with Tween-80) of the same compound?
A: 98 % of control

Q: Which results are given for COC1(OC)C2(Cl)C(Cl)=C(Cl)C1(Cl)C1C3CC=CC(CC12)S3 (stereo not drawn)?
A: T/C (dose: 100.0 mg/kg/injection, schedule: Q04DX002 (ip), vehicle: saline with Tween-80): 102 % of control; T/C (dose: 200.0 mg/kg/injection, schedule: Q04DX002 (ip), vehicle: saline with Tween-80): 100 % of control; T/C (dose: 400.0 mg/kg/injection, schedule: Q04DX002 (ip), vehicle: saline with Tween-80): 99 % of control

Q: Which results are given for CC(C)(Oc1ccc(C(=O)c2ccc(Cl)c(Cl)c2)cc1)C(=O)O?
A: T/C [1]: 94 % of control; T/C [2]: 102 % of control; T/C [3]: 107 % of control

Q: Which T/C (dose: 6.25 mg/kg/injection, schedule: Q01DX009 (ip), vehicle: saline with Tween-80) does the source give for C=CS(=O)(=O)OCCCl here?
A: 108 % of control and 109 % of control and 111 % of control

Q: What about the T/C (dose: 18.75 mg/kg/injection, schedule: Q01DX009 (ip), vehicle: saline with Tween-80) of the same compound?
A: 117 % of control

Q: How did the T/C (dose: 12.5 mg/kg/injection, schedule: Q01DX009 (ip), vehicle: distilled water + Tween-80) turn out when CCNC(=O)OCc1c(COC(=O)NCC)c2n(c1C)CCc1ccccc1-2 was run?
A: 157 % of control and 185 % of control

Q: And the T/C (dose: 25.0 mg/kg/injection, schedule: Q01DX009 (ip), vehicle: distilled water + Tween-80)?
A: 166 % of control

Q: For CC1(C)NC(C(=O)O)Cc2c1[nH]c1ccccc21 (stereo not drawn), which T/C (dose: 25.0 mg/kg/injection, schedule: Q01DX009 (ip), vehicle: saline) is on record?
A: 102 % of control

Q: What about the T/C (dose: 50.0 mg/kg/injection, schedule: Q01DX009 (ip), vehicle: saline) of the same compound?
A: 91 % of control

Q: What about the T/C (dose: 100.0 mg/kg/injection, schedule: Q01DX009 (ip), vehicle: saline) of the same compound?
A: 94 % of control

Q: How did the T/C (dose: 50.0 mg/kg/injection, schedule: Q01DX005 (ip), vehicle: Klucel (hydroxypropylcellulose) (HPC)) turn out when c1ccc(CNc2cccc(NCc3ccccn3)n2)nc1 was run?
A: 101 % of control

Q: What about the T/C (dose: 100.0 mg/kg/injection, schedule: Q01DX005 (ip), vehicle: Klucel (hydroxypropylcellulose) (HPC)) of the same compound?
A: 95 % of control

Q: And the T/C (dose: 200.0 mg/kg/injection, schedule: Q01DX005 (ip), vehicle: Klucel (hydroxypropylcellulose) (HPC))?
A: 108 % of control

Q: [Cl][Pt+2][Cl].[NH-]C1CCCCCCC1.[NH-]C1CCCCCCC1 was tested. Which T/C (dose: 12.5 mg/kg/injection, schedule: Q01DX009 (ip), vehicle: other) did it give?
A: 106 % of control

Q: What about the T/C (dose: 25.0 mg/kg/injection, schedule: Q01DX009 (ip), vehicle: other) of the same compound?
A: 97 % of control

Q: What about the T/C (dose: 50.0 mg/kg/injection, schedule: Q01DX009 (ip), vehicle: other) of the same compound?
A: 101 % of control

Q: What about the T/C (dose: 100.0 mg/kg/injection, schedule: Q01DX009 (ip), vehicle: other) of the same compound?
A: 117 % of control

Q: And the T/C (dose: 200.0 mg/kg/injection, schedule: Q01DX009 (ip), vehicle: other)?
A: 108 % of control

Q: Which results are given for O=C(NC(=O)Nc1ccc(Cl)cc1)NC(=O)c1ccccc1F?
A: T/C [1]: 114 % of control; T/C [2]: 101 % of control; T/C [3]: 95 % of control
